Here are results for 13 compounds from ChEMBL document CHEMBL1201862, “PubChem BioAssay data set” (2004).

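96-well plates; 48 h exposure; 5 concentrations. Endpoints by linear interpolation between flanking doses. Not reached: highest tested concentration assigned. GI50 marks 50% less growth.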 Activity calls are given as the source filed them. Rule as the data show it: active = GI50 up to about 1.1 µM and inactive = higher.

Among the test systems are 786-0; A549; DU-145; HL-60; HOP-92; K562; LOX IMVI; MCF7; MDA-MB-231; MDA-MB-435; MDA-N; NCI-H226; OVCAR-3; PC-3; SF-268; SW-620; UACC-62; UO-31; RPMI-8226; T47D.
Common to all, as to assay: inhibition of tumour cell growth, NCI panel, 48 h

Regarding `CNC1(c2cc3ccccc3s2)CCCCC1`, the GI50 in the assay on 786-0 is 19.2 µM (inactive); with A549, 48.1 µM (inactive); with DU-145, 40.1 µM (inactive); in the assay with HL-60, < 0.01 µM (active); with HOP-92, 14.3 µM (inactive); in the assay with K562 it was 31.8 µM (inactive). The GI50 in the assay with LOX IMVI is 19.9 µM (inactive); in the assay with MCF7, 29.5 µM (inactive); in the assay with MDA-MB-231 it was 23.2 µM (inactive); with MDA-MB-435, 16.8 µM (inactive); with MDA-N it was 19.9 µM (inactive); in the assay with NCI-H226, 32.7 µM (inactive). Further, the GI50 is 28.2 µM (inactive) in the assay on OVCAR-3; 18.1 µM (inactive) in the assay with PC-3; 14.2 µM (inactive) with SF-268; < 0.01 µM (active) in the assay with SW-620; 20.6 µM (inactive) in the assay on UACC-62; 46.9 µM (inactive) in the assay on UO-31.

Regarding `CCCNC1=C(C)C(=O)C2=C(C1=O)[C@H](COC(N)=O)[C@]1(OC)[C@@H]3N[C@@H]3CN21`, the GI50 with A549 is 0.43 µM (active); in the assay on HL-60 it was 0.394 µM (active); with HOP-92, 8.57 µM (inactive); with K562, 12.1 µM (inactive); with LOX IMVI it was 1.6 µM (inactive); in the assay with MCF7, 0.0422 µM (active). In addition, the GI50 was 6.27 µM (inactive) with NCI-H226; 11.6 µM (inactive) in the assay with OVCAR-3; 7.18 µM (inactive) in the assay on RPMI-8226; 4.65 µM (inactive) in the assay on SF-268; 3.73 µM (inactive) with SW-620; 0.472 µM (active) in the assay with UACC-62. For the same compound, the GI50 with UO-31 is 20.3 µM (inactive).

In the case of `CC1(C)C[C@H]2C3=CC[C@@H]4[C@@]5(C)CC[C@H](O)C(C)(C)[C@@H]5CC[C@@]4(C)[C@]3(C)C[C@@H](O)[C@@]23C[C@@H]1OC3=O`, the GI50 in the assay on 786-0 was > 100 µM (inactive); in the assay with A549, 72.9 µM (inactive); in the assay with DU-145 it was > 100 µM (inactive); in the assay with HL-60 it was 37.1 µM (inactive); in the assay with HOP-92, > 100 µM (inactive); with K562, 97.1 µM (inactive). In addition, the GI50 in the assay on LOX IMVI is > 100 µM (inactive); in the assay with MCF7, 59.2 µM (inactive); with MDA-MB-231, > 100 µM (inactive); in the assay on MDA-MB-435, > 100 µM (inactive); in the assay on OVCAR-3, > 100 µM (inactive); in the assay on PC-3 it was 68.1 µM (inactive). Besides, the GI50 is 65.5 µM (inactive) with RPMI-8226; > 100 µM (inactive) in the assay with SF-268; > 100 µM (inactive) with SW-620; 56.6 µM (inactive) in the assay with T47D; > 100 µM (inactive) with UACC-62; > 100 µM (inactive) in the assay with UO-31.

Take `CCCC(O)C(NC(=O)CCl)C(=O)O` (stereo not drawn): the GI50 in the assay on A549, in the assay on HL-60, in the assay on HOP-92, in the assay with K562, with LOX IMVI and with MCF7 was > 100 µM (inactive) each time. Further, the GI50 with NCI-H226, with OVCAR-3, with RPMI-8226, in the assay on SF-268, in the assay on SW-620 and in the assay on UACC-62 was > 100 µM (inactive) throughout. Besides, the GI50 with UO-31 was > 100 µM (inactive).

As for `CSCCC(NC(=O)C(Cc1ccccc1)NC(=O)CNC(=O)CNC(=O)C(N)Cc1ccc(O)cc1)C(=O)O` (stereo not drawn), the GI50 with A549, in the assay on HL-60, in the assay with HOP-92, in the assay on K562, in the assay with LOX IMVI and in the assay with MCF7 was > 100 µM (inactive) throughout. Moreover, the GI50 in the assay with OVCAR-3, in the assay on SF-268, with SW-620, in the assay with UACC-62 and in the assay on UO-31 was > 100 µM (inactive) each time.

Regarding `Cc1ccc(SC[C@@]2(C(F)F)NC(=O)NC2=O)cc1`, the GI50 with 786-0, with A549, in the assay on DU-145, in the assay with HL-60, with HOP-92 and in the assay with K562 was > 100 µM (inactive) in each case. For the same compound, the GI50 with LOX IMVI, in the assay on MDA-MB-231, in the assay with MDA-MB-435, in the assay with NCI-H226, in the assay with OVCAR-3 and in the assay on PC-3 was > 100 µM (inactive) throughout. Moreover, the GI50 in the assay on RPMI-8226, with SF-268, in the assay on SW-620, in the assay on T47D, with UACC-62 and in the assay with UO-31 was > 100 µM (inactive) in each case.

For the compound `C(/C=N/c1ccccc1)=C(/Nc1ccccc1)c1ccc2ccccc2c1`, the GI50 in the assay on 786-0 is 2.45 µM (inactive); with A549 it was 4.08 µM (inactive); with DU-145, 2.02 µM (inactive); with HL-60 it was 1.5 µM (inactive); with HOP-92, 9.62 µM (inactive); with K562, 0.897 µM (active). Besides, the GI50 is 1.53 µM (inactive) in the assay on LOX IMVI; 3.18 µM (inactive) in the assay on MCF7; 1.29 µM (inactive) with MDA-MB-231; 0.299 µM (active) with MDA-MB-435; 1.77 µM (inactive) in the assay with NCI-H226; 1.46 µM (inactive) in the assay on OVCAR-3. Further, the GI50 in the assay with PC-3 was 1.55 µM (inactive); in the assay with RPMI-8226, 1.79 µM (inactive); with SF-268, 4.71 µM (inactive); in the assay with SW-620, 3.88 µM (inactive); in the assay on T47D, 2.36 µM (inactive); in the assay with UACC-62 it was 0.548 µM (active). In addition, the GI50 with UO-31 is 3.13 µM (inactive).

For `C[C@@H](N[C@H]1CCC[C@@H]1O)c1ccccc1.C[C@@H](N[C@H]1CCC[C@H]1O)c1ccccc1`, the GI50 was 70.1 µM (inactive) in the assay with 786-0; > 100 µM (inactive) with A549; 43.6 µM (inactive) with HL-60; 30.7 µM (inactive) with HOP-92; 44.9 µM (inactive) with K562; 34.4 µM (inactive) in the assay with LOX IMVI. For the same compound, the GI50 in the assay on NCI-H226 was 19.9 µM (inactive); with OVCAR-3, > 100 µM (inactive); in the assay with RPMI-8226 it was 53.7 µM (inactive); in the assay on SF-268, > 100 µM (inactive); in the assay with SW-620 it was 61.4 µM (inactive); with UACC-62, 75 µM (inactive). In the assay on UO-31, the GI50 is 50.5 µM (inactive).

For `CCNC(=O)CCN(C(=O)O)S(=O)(=O)c1ccc(NC(=O)c2ccccc2)cc1`, the GI50 is 10.3 µM (inactive) in the assay on 786-0; > 100 µM (inactive) in the assay on A549; > 100 µM (inactive) in the assay on HL-60; > 100 µM (inactive) in the assay with HOP-92; 86.3 µM (inactive) in the assay with K562; 22.6 µM (inactive) in the assay with LOX IMVI. The GI50 with NCI-H226 is > 100 µM (inactive); with OVCAR-3, > 100 µM (inactive); with RPMI-8226, > 100 µM (inactive); with SF-268, > 100 µM (inactive); in the assay on SW-620, 15.5 µM (inactive); with UACC-62, > 100 µM (inactive). For the same compound, the GI50 in the assay with UO-31 was > 100 µM (inactive).

With `N#Cc1ccc(/C=C(/C(=O)c2ccccc2)c2ccccc2)cc1`, the GI50 with 786-0 was 10.9 µM (inactive); with A549 it was 16.9 µM (inactive); in the assay on HL-60, 2.67 µM (inactive); in the assay with HOP-92, 14 µM (inactive); in the assay with K562, 2.6 µM (inactive); in the assay on LOX IMVI, 2.75 µM (inactive). For the same compound, the GI50 was 16.7 µM (inactive) in the assay with NCI-H226; 16.1 µM (inactive) in the assay with OVCAR-3; 2.59 µM (inactive) in the assay on RPMI-8226; 15.2 µM (inactive) with SF-268; 2.64 µM (inactive) in the assay with SW-620; 7.48 µM (inactive) in the assay with UACC-62. In addition, the GI50 with UO-31 is 14.2 µM (inactive).

`O=Cc1ccc(-c2cccc([N+](=O)[O-])c2)s1`: the GI50 with 786-0 is 80 µM (inactive); with A549, > 100 µM (inactive); in the assay with DU-145, 61 µM (inactive); with HL-60, 64.4 µM (inactive); in the assay on HOP-92 it was > 100 µM (inactive); with K562 it was 72.1 µM (inactive). In addition, the GI50 is > 100 µM (inactive) in the assay on LOX IMVI; > 100 µM (inactive) in the assay on MCF7; > 100 µM (inactive) in the assay on MDA-MB-231; > 100 µM (inactive) in the assay with MDA-MB-435; 67.5 µM (inactive) with NCI-H226; > 100 µM (inactive) in the assay with OVCAR-3. In addition, the GI50 in the assay on PC-3 is > 100 µM (inactive); in the assay on RPMI-8226 it was 67 µM (inactive); in the assay with SF-268 it was > 100 µM (inactive); in the assay with SW-620, > 100 µM (inactive); with T47D, 86.5 µM (inactive); with UACC-62, > 100 µM (inactive). For the same compound, in the assay on UO-31, the GI50 was 65.8 µM (inactive).

In the case of `CC(=O)Nc1cccc(/N=N/N(C)C)c1`, the GI50 in the assay on A549 is > 100 µM (inactive); in the assay on HL-60, > 100 µM (inactive); in the assay with HOP-92, > 100 µM (inactive); with K562, 98.4 µM (inactive); in the assay with LOX IMVI, > 100 µM (inactive); in the assay with MCF7, > 100 µM (inactive). The GI50 in the assay on NCI-H226, in the assay with OVCAR-3, in the assay with RPMI-8226, with SF-268, in the assay with SW-620 and in the assay with UACC-62 was > 100 µM (inactive) each time. Also, in the assay with UO-31, the GI50 was > 100 µM (inactive).

Turning to `COc1ccc(C2OC[C@H]3O[C@@H](OCc4ccccc4)[C@H](O)[C@@H](O)[C@@H]3O2)cc1` (stereo partly drawn), the GI50 was > 100 µM (inactive) in the assay with A549; > 100 µM (inactive) in the assay on DU-145; 35.8 µM (inactive) in the assay with HOP-92; > 100 µM (inactive) in the assay on K562; > 100 µM (inactive) with LOX IMVI; > 100 µM (inactive) in the assay on MCF7. The GI50 is > 100 µM (inactive) with MDA-MB-231; > 100 µM (inactive) in the assay with MDA-MB-435; > 100 µM (inactive) in the assay on MDA-N; 23.2 µM (inactive) with NCI-H226; > 100 µM (inactive) in the assay on OVCAR-3; 99.8 µM (inactive) in the assay with PC-3. Besides, the GI50 with RPMI-8226 is 76.9 µM (inactive); in the assay with SF-268 it was > 100 µM (inactive); in the assay on SW-620, > 100 µM (inactive); in the assay on UACC-62 it was > 100 µM (inactive); with UO-31, > 100 µM (inactive).
